# Data: patent US8193191B2, “Urotensin II receptor antagonists” (Janssen Pharmaceutica N.V., priority 2006, dated 2012)
# Like-named read-outs stand apart in the source and are kept apart here.
# Experiments:
# [1] = target: T1, Human UII receptor, 6D9 human rhabdomyosarcoma cells (Homo sapiens, UniProt Q9UKP6); test: Human UII Calcium Mobilization Assay; type: cell-based; details: average value, FLIPR TETRA, read-out: Human UII Ca^+ Mobilization Average IC50
# T1 construct: 6D9: isolated by dilution subcloning of RMS13 cells, ATCC® Number: CRL-2061; host or cells: 6D9 human rhabdomyosarcoma cells (subclone of RMS13)
# T1 sequence (Q9UKP6 1-389): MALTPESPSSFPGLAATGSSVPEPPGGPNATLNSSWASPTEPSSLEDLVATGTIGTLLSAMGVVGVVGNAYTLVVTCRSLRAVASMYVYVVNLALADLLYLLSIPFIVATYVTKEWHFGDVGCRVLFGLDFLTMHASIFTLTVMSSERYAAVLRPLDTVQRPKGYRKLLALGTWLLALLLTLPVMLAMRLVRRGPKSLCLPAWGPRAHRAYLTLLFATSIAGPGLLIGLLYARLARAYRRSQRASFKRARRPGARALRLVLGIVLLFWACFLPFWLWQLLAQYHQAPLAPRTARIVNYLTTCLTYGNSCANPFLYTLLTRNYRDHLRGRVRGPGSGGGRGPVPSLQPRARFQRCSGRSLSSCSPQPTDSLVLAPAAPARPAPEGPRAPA
# Method in brief: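 6D9 rhabdomyosarcoma cells loaded 45 min at 37° C with calcium dye (1.25 mM probenecid, 0.01% FBS, HBSS/20 mM HEPES). Antagonist and U-II agonist added at room temperature; FLIPR fluorescence read over 4 min; EC50/IC50 fitted. DMSO ≤0.1% final.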
# [2] = target: T2, endogenous human UII receptor (Homo sapiens, UniProt Q9UKP6); test: Human Radioligand Binding Assay ((^125I)-U-II binding to human skeletal muscle myoblasts)
# T2 sequence (Q9UKP6 1-389): T1 sequence (Q9UKP6 1-389)
# [3] = target: T3, rat GPR14 (U-II receptor) (Rattus norvegicus, UniProt P49684); test: Rat UII Calcium Mobilization FLIPR Assay; type: cell-based; details: average value for the compound tested; read-out: Rat UII FLIPR Average IC50
# T3 construct: expressed in transfected cells
# T3 sequence (P49684 1-386): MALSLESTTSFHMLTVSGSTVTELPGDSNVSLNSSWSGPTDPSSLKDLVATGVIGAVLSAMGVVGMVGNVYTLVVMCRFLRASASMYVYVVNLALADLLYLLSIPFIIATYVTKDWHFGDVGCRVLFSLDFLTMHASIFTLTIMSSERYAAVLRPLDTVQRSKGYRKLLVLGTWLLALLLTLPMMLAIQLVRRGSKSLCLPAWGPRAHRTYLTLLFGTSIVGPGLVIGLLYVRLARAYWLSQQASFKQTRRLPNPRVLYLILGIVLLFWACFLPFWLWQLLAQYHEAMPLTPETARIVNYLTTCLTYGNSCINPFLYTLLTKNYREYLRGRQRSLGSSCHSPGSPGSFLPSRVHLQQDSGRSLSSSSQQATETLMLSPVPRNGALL
# Method in brief: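 CHO cells stably expressing rat U-II receptor, seeded 24 h before assay, were loaded with FLIPR calcium dye in HBSS/20 mM HEPES/0.1% BSA/2.5 mM probenecid, pH 7.4, for 1 h at 37° C. Calcium mobilization then read by FLIPR at 23° C.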
IC50 [1] [µM],IC50 [3] [µM],Ki [2] [µM],SMILES,"Ki ([2]; read-out: Human UII Average Binding Ki, average value, (^125I)-U-II binding to human skeletal muscle myoblasts (HSMM), 25° C., 3 h) [µM]"
1.1,0.0071,0.093,"COCCC(=O)NCCC[C@H](c1ccc(OC)c(OC)c1)N1C(=O)c2cccc(N3CCN([C@H](C)c4ccccc4)CC3)c2C1=O [Cpd 177, (R)-N-(4-(3,4-dimethoxy-phenyl)-4-{1,3-dioxo-4-[4-(1R)-(1-phenyl-ethyl)-piperazin-1-yl]-1,3-dihydro-isoindol-2-yl}-butyl)-3-methoxy-propionamide]",–
0.56,0.013,0.022,"COc1ccc([C@@H](CCCNC(=O)C2CCC2)N2C(=O)c3cccc(N4CCN([C@H](C)c5ccccc5)CC4)c3C2=O)cc1OC [Cpd 178, (R)-cyclobutanecarboxylic acid (4-(3,4-dimethoxy-phenyl)-4-{1,3-dioxo-4-[4-(1R)-(1-phenyl-ethyl)-piperazin-1-yl]-1,3-dihydro-isoindol-2-yl}-butyl)-amide]",–
1.1,0.024,0.043,"COc1ccc([C@@H](CCCNC(=O)C2CCCC2)N2C(=O)c3cccc(N4CCN([C@H](C)c5ccccc5)CC4)c3C2=O)cc1OC [Cpd 179, (R)-cyclopentanecarboxylic acid (4-(3,4-dimethoxy-phenyl)-4-{1,3-dioxo-4-[4-(1R)-(1-phenyl-ethyl)-piperazin-1-yl]-1,3-dihydro-isoindol-2-yl}-butyl)-amide]",–
0.57,0.0088,0.023,"CCC(=O)NCCC[C@H](c1ccc(OC)c(OC)c1)N1C(=O)c2cccc(N3CCN([C@H](C)c4ccccc4)CC3)c2C1=O [Cpd 180, (R)-N-(4-(3,4-dimethoxy-phenyl)-4-{1,3-dioxo-4-[4-(1R)-(1-phenyl-ethyl)-piperazin-1-yl]-1,3-dihydro-isoindol-2-yl}-butyl)-propionamide]",–
0.97,0.012,0.041,"COc1ccc([C@@H](CCCNC(=O)CC(C)C)N2C(=O)c3cccc(N4CCN([C@H](C)c5ccccc5)CC4)c3C2=O)cc1OC [Cpd 181, (R)-N-(4-(3,4-dimethoxy-phenyl)-4-{1,3-dioxo-4-[4-(1R)-(1-phenyl-ethyl)-piperazin-1-yl]-1,3-dihydro-isoindol-2-yl}-butyl)-3-methyl-butyramide]",–
0.58,0.0096,0.04,"CCOCC(=O)NCCC[C@H](c1ccc(OC)c(OC)c1)N1C(=O)c2cccc(N3CCN([C@H](C)c4ccccc4)CC3)c2C1=O [Cpd 182, (R)-N-(4-(3,4-dimethoxy-phenyl)-4-{1,3-dioxo-4-[4-(1R)-(1-phenyl-ethyl)-piperazin-1-yl]-1,3-dihydro-isoindol-2-yl}-butyl)-2-ethoxy-acetamide]",–
1.3,0.019,0.055,"COc1ccc([C@@H](CCCNC(=O)c2cnn(C)c2Cl)N2C(=O)c3cccc(N4CCN([C@H](C)c5ccccc5)CC4)c3C2=O)cc1OC [Cpd 183, (R)-5-chloro-1-methyl-1H-pyrazole-4-carboxylic acid (4-(3,4-dimethoxy-phenyl)-4-{1,3-dioxo-4-[4-(1R)-(1-phenyl-ethyl)-piperazin-1-yl]-1,3-dihydro-isoindol-2-yl}-butyl)-amide]",–
1.1,0.015,0.056,"COc1ccc([C@@H](CCCNC(=O)c2c(C)nn(C)c2C)N2C(=O)c3cccc(N4CCN([C@H](C)c5ccccc5)CC4)c3C2=O)cc1OC [Cpd 184, (R)-1,3,5-trimethyl-1H-pyrazole-4-carboxylic acid (4-(3,4-dimethoxy-phenyl)-4-{1,3-dioxo-4-[4-(1R)-(1-phenyl-ethyl)-piperazin-1-yl]-1,3-dihydro-isoindol-2-yl}-butyl)-amide]",–

# The remaining lines, values behind:
SMILES,IC50 [1] [µM],IC50 [3] [µM],Ki [2] [µM],"Ki ([2]; read-out: Human UII Average Binding Ki, average value, (^125I)-U-II binding to human skeletal muscle myoblasts (HSMM), 25° C., 3 h) [µM]"
"COc1ccc([C@@H](CCCNS(=O)(=O)c2cccs2)N2C(=O)c3cccc(N4CCN(C)CC4)c3C2=O)cc1OC [Cpd 169, (R)-thiophene-2-sulfonic acid {4-(3,4-dimethoxy-phenyl)-4-[4-(4-methyl-piperazin-1-yl)-1,3-dioxo-1,3-dihydro-isoindol-2-yl]-butyl}-amide]",0.22,0.016,–,0.059
"COc1ccc([C@@H](CCCNS(=O)(=O)c2cccs2)N2C(=O)c3cccc(N4CCN(Cc5ccoc5)CC4)c3C2=O)cc1OC [Cpd 170, (R)-thiophene-2-sulfonic acid {4-(3,4-dimethoxy-phenyl)-4-[4-(4-furan-3-ylmethyl-piperazin-1-yl)-1,3-dioxo-1,3-dihydro-isoindol-2-yl]-butyl}-amide]",0.41,0.0084,0.031,–
"COc1ccc([C@@H](CCCNS(=O)(=O)c2cccs2)N2C(=O)c3cccc(N4CCN(Cc5cccnc5)CC4)c3C2=O)cc1OC [Cpd 171, (R)-thiophene-2-sulfonic acid {4-(3,4-dimethoxy-phenyl)-4-[1,3-dioxo-4-(4-pyridin-3-ylmethyl-piperazin-1-yl)-1,3-dihydro-isoindol-2-yl]-butyl}-amide]",1,0.011,0.37,–
"COc1ccc([C@@H](CCCNS(=O)(=O)c2cccs2)N2C(=O)c3cccc(N4CCN(Cc5ccsc5)CC4)c3C2=O)cc1OC [Cpd 172, (R)-thiophene-2-sulfonic acid {4-(3,4-dimethoxy-phenyl)-4-[1,3-dioxo-4-(4-thiophen-3-ylmethyl-piperazin-1-yl)-1,3-dihydro-isoindol-2-yl]-butyl}-amide]",0.22,0.011,0.026,–
"COc1ccc([C@@H](CCCNC(=O)C2CCOC2)N2C(=O)c3cccc(N4CCN([C@H](C)c5ccccc5)CC4)c3C2=O)cc1OC (stereo partly drawn) [Cpd 173, (R)-tetrahydro-furan-3-carboxylic acid (4-(3,4-dimethoxy-phenyl)-4-{1,3-dioxo-4-[4-(1R)-(1-phenyl-ethyl)-piperazin-1-yl]-1,3-dihydro-isoindol-2-yl}-butyl)-amide]",0.8,0.011,0.066,–
"COc1ccc([C@@H](CCCNC(=O)C(C)C)N2C(=O)c3cccc(N4CCN([C@H](C)c5ccccc5)CC4)c3C2=O)cc1OC [Cpd 174, (R)-N-(4-(3,4-dimethoxy-phenyl)-4-{1,3-dioxo-4-[4-(1R)-(1-phenyl-ethyl)-piperazin-1-yl]-1,3-dihydro-isoindol-2-yl}-butyl)-isobutyramide]",0.62,0.011,0.019,–
"COCC(=O)NCCC[C@H](c1ccc(OC)c(OC)c1)N1C(=O)c2cccc(N3CCN([C@H](C)c4ccccc4)CC3)c2C1=O [Cpd 175, (R)-N-(4-(3,4-dimethoxy-phenyl)-4-{1,3-dioxo-4-[4-(1R)-(1-phenyl-ethyl)-piperazin-1-yl]-1,3-dihydro-isoindol-2-yl}-butyl)-2-methoxy-acetamide]",0.41,0.0061,0.026,–
"CCCC(=O)NCCC[C@H](c1ccc(OC)c(OC)c1)N1C(=O)c2cccc(N3CCN([C@H](C)c4ccccc4)CC3)c2C1=O [Cpd 176, (R)-N-(4-(3,4-dimethoxy-phenyl)-4-{1,3-dioxo-4-[4-(1R)-(1-phenyl-ethyl)-piperazin-1-yl]-1,3-dihydro-isoindol-2-yl}-butyl)-butyramide]",0.85,0.013,0.024,–
